{"source": "patent US20040171681A1", "about": "“Medicines and medicinal kits” (priority 2001, published 2004)", "tested_on": "ocular hypertension models", "experiment": "Test Example 1: ocular tension in rabbit ocular hypertension models (hypertonic saline) after eye drop solutions", "assay_type": "in vivo, Domesticated rabbits", "conditions": "rabbits given 100 μl 5 w/v % hypertonic saline, 50 μl eye drop solution, mean ± standard error", "procedure": "Domesticated rabbits intravenously administered with 100 μl of a 5 w/v % hypertonic saline solution were used as ocular hypertension models. After intravenously administering the hypertonic saline solution, 50 μl of each of the eye drop solutions were administered and the ocular tension was measured 60 and 120 minutes thereafter."}
{"smiles": "CC(C)OC(=O)CCC/C=C\\C[C@@H]1[C@@H](CC[C@@H](O)CCc2ccccc2)[C@H](O)C[C@@H]1O", "note": "[Latanoprost, latanoprost]", "values": [{"measurement": "Ocular tension change (mmHg) 60 minutes", "setting": "60 minutes after", "value": "22.7 ± 1.2", "unit": "mmHg"}, {"measurement": "Ocular tension change (mmHg) 120 minutes", "setting": "120 minutes after", "value": "9.8 ± 1.9", "unit": "mmHg"}]}
